According to patent US20050009924A1 (priority 2003, published 2005):

Assays:
rat glioma C6 cells = assay: Cytotoxicity assay (XTT colorimetric), C6 cells; format: cell-based; conditions: 48 h of drug exposure
human hepatoma G2 cells = assay: Cytotoxicity assay (XTT colorimetric), Hep G2; format: cell-based; conditions: 48 h of drug exposure
[1] = system: hepatitis B virus transfected hepatoma cell lines, HepG 2.2.15 cells; assay: Cytotoxicity assay, 2.2.15 cells; format: cell-based, human; conditions: 48 h of drug exposure
[2] = MTT relative viability, PhTERT-SEAP (hTERT-BJ1) cells; conditions: human, hTERT-BJ1 cells stably transfected with PhTERT-SEAP reporter
[3] = system: transcriptional activity of hTERT; assay: SEAP reporter assay of hTERT expression, PhTERT-SEAP (H1299); format: cell-based, human; conditions: PhTERT-SEAP(hTERT-H1299)
Experimental: (§1) Secreted alkaine phosphatase was used as the reporter system to monitor the transcriptional activity of hTERT. Here, about […] each were grown in 96-well plates and incubated at 37° C. for 24 h and changed with fresh media. Varying amounts of drugs were added and cells were incubated for another 24 h. Culture media were collected and heated at 65° C. for 10 min to inactivate heat-labile phosphatases. An equal amount of SEAP buffer (2 M diethanolamine, 1 mM MgCl2, and 20 mM […]) was added to the media and p-nitrophenyl phosphate was added to a final concentration of 12 mM. Absorptions at 405 nm were taken, and the rate of absorption increase is determined.
(§2) Culture media were changed every 3 days. […] The stable clones were selected using G418.

[4] = MTT relative viability, PhTERT-SEAP (H1299) cells; conditions: human
Experimental: The tetrazolium reagent (MTT; 3-(4,5-di-methylthiazol)-2,5-diphenyl tetrazolium bromide, USB) was designed to yield a colored formazan upon metabolic reduction by viable cells. Approximately […] cells were plated onto each well of a 96-well plate and incubated in 5% CO2 at 37° C. for 24 h. To assess the in vitro cytotoxicity, each compound was dissolved in DMSO and prepared immediately before the experiments and was diluted into the complete medium before addition to cell cultures. Test compounds were then added to the culture medium for designated various concentrations. After 48 h, an amount of 25 μL of MTT was added to each well, and the samples were incubated at 37° C. for 4 h. A 100 μL solution of lysis buffer containing 20% SDS and 50% N,N-dimethylformamide was added to each well and incubated at 37° C. for another 16 h. The absorbency at 550 nm was measured using an ELISA reader.
Non small lung cancer cells H1299 (telomerase positive) were grown in RPMI 1640 media supplemented with 10% fetal bovine serum, 100 units/mL penicillin and 100 mg/mL streptomycin in a humidified atmosphere with 5% CO2 at 37° C. The hTERT immortalized hTERT-BJ1 (BD Biosciences Clontech)^39 were grown in DMEM media supplemented with 10% fetal calf serum, 100 units/mL penicillin and 100 mg/mL streptomycin, 1 mM sodium pyruvate, and 4 mM I-arginine in a humidified atmosphere with 5% CO2 at 37° C. Culture media were changed every 3 days. […] The stable clones derived from H1299 or hTERT-BJ1 were cultured using conditions that are similar to their parental cells.

[5] = system: transcriptional activity of hTERT; assay: SEAP reporter assay of hTERT expression, PhTERT-SEAP (hTERT-BJ1); format: cell-based, human; conditions: PhTERT-SEAP (hTERT-BJ1)
Experimental: as §1, §2

`O=C1c2cccc(NC3CCCC3)c2C(=O)c2cccc(NC3CCCC3)c21` [IVo, 1,5-Bis(cyclopentaneamino)-anthraquinone] showed an IC50 (rat glioma C6 cells) of over 20 µM, an IC50 (human hepatoma G2 cells) of over 20 µM and an IC50 [1] of over 20 µM.
`O=C1c2cccc(Nc3ccc(O)cc3)c2C(=O)c2cccc(Nc3ccc(O)cc3)c21` [IVq, 1,5-Bis(phenolamino)-anthraquinone] gave an IC50 (rat glioma C6 cells) of 14.21 ± 0.08 µM, an IC50 (human hepatoma G2 cells) of 4.2 ± 0.76 µM and an IC50 [1] of over 20 µM.
With `CC(=O)Nc1ccc(NC(C)=O)c2c1C(=O)c1ccccc1C2=O` [VI3, 1,4-Bisacetamido-9,10-anthracenedione] the viability at 48 h, 3.1 µM [2] was 117 ± 3%, the viability at 48 h, 31 µM [2] was 95 ± 11.9% and the viability at 48 h, 310 µM [2] was 49 ± 8.9%. It also gave an IC50 (rat glioma C6 cells; Rattus norvegicus, C6) of over 20 µM, an IC50 (human hepatoma G2 cells; Homo sapiens, HepG2) of over 20 µM and an SEAP/vibility ([3]; 3.1 μM) of 0.78. The SEAP/vibility ([3]; 31 μM) was 0.83, the SEAP/vibility ([3]; 310 μM) was 2.16 and the activity at 3.1 µM ([3]; Homo sapiens, NCI-H1299, 3.1 μM, read-out: Relative SEAP activity (%)) was 85 ± 2.3%. It also gave an activity at 31 µM ([3]; Homo sapiens, NCI-H1299, 31 μM, read-out: Relative SEAP activity (%)) of 90 ± 3.3%, an activity at 310 µM ([3]; Homo sapiens, NCI-H1299, 310 μM, read-out: Relative SEAP activity (%)) of 80 ± 3.1% and a viability at 48 h, 3.1 µM [4] of 109 ± 3.5%. For the same compound, the viability at 48 h, 31 µM [4] was 108 ± 3.6%, the viability at 48 h, 310 µM [4] was 37 ± 1.3% and the SEAP/vibility ([5]; 3.1 μM) was 0.66. For the same compound, the SEAP/vibility ([5]; 31 μM) was 0.87, the SEAP/vibility ([5]; 310 μM) was 1.20 and the activity at 3.1 µM ([5]; Homo sapiens, 3.1 μM, read-out: Relative SEAP activity (%)) was 77 ± 12.4%. For the same compound, the activity at 31 µM ([5]; Homo sapiens, 31 μM, read-out: Relative SEAP activity (%)) was 83 ± 10%, the activity at 310 µM ([5]; Homo sapiens, 310 μM, read-out: Relative SEAP activity (%)) was 59 ± 15.2% and the IC50 ([1]; Homo sapiens, HepG2.2.15) was over 20 µM.
For `CCNc1cccc2c1C(=O)c1c(NCC)cccc1C2=O` [Va, 1,8-Bis(ethylamine)-anthraquinone], the IC50 (rat glioma C6 cells) was over 20 µM, the IC50 (human hepatoma G2 cells) was over 20 µM and the IC50 [1] was over 20 µM.
With `CCCNc1cccc2c1C(=O)c1c(NCCC)cccc1C2=O` [Vb, 1,8-Bis(propylamine)-anthraquinone] the IC50 (rat glioma C6 cells) was 0.61 ± 0.01 µM, the IC50 (human hepatoma G2 cells) was 0.19 µM and the IC50 [1] was 1.06 µM.
Compound `CCCCNc1cccc2c1C(=O)c1c(NCCCC)cccc1C2=O` [Vc] has an IC50 (rat glioma C6 cells) of over 20 µM, an IC50 (human hepatoma G2 cells) of over 20 µM and an IC50 [1] of over 20 µM.
